Read-outs that look alike come from different tables or passages of the source.
Legend:
[1] = dynamic vapor sorption
[2] = not given; remark: listed apart in the source
[3] = urine
Source text: On Day −7 a catheter was surgically placed in the bladder of each animal. The distal end of the catheter was anchored to a subcutaneous site and attached to a vascular access port (VAP). The port was secured, and the animals were allowed to recover. Each animal was subsequently fitted with a portable infusion pump that was attached to the bladder catheter via the VAP. […] All excreted urine was collected in 24-hour intervals through Day 6 or 8. Blood samples were collected daily on study Days 1 to 8. Bladder tissue samples were collected from each animal at necropsy.

[4] = Stability in minipig urine; assay type: in vitro ADME; details: freshly collected minipig urine, 37° C., 6 hours
Method: (§1) At the end of 6-hours post-dialysis incubation, drug was analyzed, and the recovery was calculated against the spiked concentrations.

[5] = rat, in vivo
Source text: Rat bladders (5 groups of rats, n=3/group) were surgically catheterized under anesthesia and the catheter was externalized, tunneled subcutaneously, and connected to a vascular access harness (VAH) in the neck. Rats were transferred to individual metabolic cages with free access to food and water during the 1-week post-surgery recovery period. […] Plasma and bladder samples were collected at all time points.

[6] = tested on: RT-112 orthotopic bladder tumor; test: Continuous bladder perfusion in athymic rats with orthotopic RT-112 bladder tumors
[7] = tested on: UM-UC-1 orthotopic bladder tumors; test: Continuous bladder perfusion in athymic rats with orthotopic UM-UC-1 bladder tumors
Method: Perfusion studies: The bladders of the study animals were cannulated on Day 1 and the animals were allowed to recover for 3 days. On Day 5, UM-UC-1 cells (2×10^6 cells) were injected into the lateral wall of each bladder. […] Based on the in vitro results, target urine concentrations of 0.5, 1.0, and 5.0 μg/mL were used in the perfusion experiments. Body weight, daily urine production, and daily water consumption were recorded. At necropsy, a plasma sample, bladder photographs, and bladder weight measurements were recorded.
The percent reduction in relative tumor weight between the control group and the drug perfusion groups was determined as an initial measure of efficacy. Bladder tissue and tumor samples were also submitted for analysis of FGFR signaling activity by determining the phosphorylated fibroblast growth factor receptor substrate (FRS)2a levels and the pERK to ERK ratio.

[8] = In vitro protein binding in minipig urine; assay type: in vitro ADME
Method: (§2) Albuminuria/proteinuria had minimal effect on % free form in urine.
as §1

[9] = In vitro protein binding in rat urine; assay type: in vitro ADME
Method: as §2, §1

[10] = In vitro protein binding in human urine; assay type: in vitro ADME
Method: as §2, §1

Stability in rat urine = assay type: in vitro ADME; details: freshly collected rat urine, 37° C., 6 hours
Method: as §1

Stability in human urine = assay type: in vitro ADME; details: freshly collected human urine, 37° C., 6 hours
Method: as §1

Structure (SMILES): COc1cc(OC)cc(N(CCNC(C)C)c2ccc3ncc(-c4cnn(C)c4)nc3c2)c1.C[C@H](O)C(=O)O [Erdafitinib L-lactate salt]
- DVS [1]: Non-hygroscopic
- solubility (as function of pH in water and simulated urine at 37° C.): very high solubility over a broad pH range
- In Vitro Permeation ([2]; EVA (CoTran 9712)): ◯
- In Vitro Permeation ([2]; TPU (EG-80A)): Δ
- In Vitro Permeation ([2]; TPU (HP-60D-35)): ◯
- In Vitro Permeation ([2]; TPU (HP-93A-100)): ◯

Structure (SMILES): COc1cc(OC)cc(N(CCNC(C)C)c2ccc3ncc(-c4cnn(C)c4)nc3c2)c1 [erdafitinib, N-(3,5-dimethoxyphenyl)-N′-(1-methylethyl)-N-[3-(1-methyl-1H-pyrazol-4-yl)quinoxalin-6-yl]ethane-1,2-diamine]
- Daily erdafitinib recoveries, of the average daily amount administered [3]: 15.7%
- stability in urine [4]: sufficiently stable
- DVS [1]: Non-hygroscopic
- solubility (normal urine pH range of 5.5 to 7): significant pH-dependent solubility
- AUC0-120h ([5]; female, Sprague-Dawley, 0.72 mg): 127,000 ng · h/mL
- C96h [5]: BQL
- C120h [5]: BQL
- bladder weight vs vehicle control ([6]; 1.0 μg/mL perfusate concentration, p<0.05): significant bladder weight reduction
- bladder weight decrease vs vehicle control ([6]; 0.25 and 0.5 μg/mL dose groups): not statistically significant
- percentage change in body weight vs vehicle control ([6]; 0.5, 1.0 and 5.0 μg/mL treatment groups (so in the source), except Group 4 on Day 11 (p<0.05)): Statistically non-significant difference
- body weight loss, maximum mean values ([6]; erdafitinib-treated group, Day 11): up to −3%
- bladder weight vs vehicle control ([7]; 0.5 (p<0.01), 1.0 and 5 μg/mL (p<0.001) nominal urine concentrations, 5 days perfusion): significant dose-related decrease
- percentage change in body weight vs vehicle control ([7]; 0.5, 1.0 and 5.0 μg/mL treatment groups): Statistically non-significant difference
- cage side observations ([7]; 5 days continuous perfusion, 0.5, 1.0, 5.0 μg/mL, any treatment group): no visible signs of abnormal behavior or clinical symptoms
- Percent erdafitinib free in urine [8]: 97%
- In Vitro Permeation ([2]; EVA (CoTran 9712)): Δ
- In Vitro Permeation ([2]; TPU (EG-80A)): Δ
- In Vitro Permeation ([2]; TPU (HP-60D-35)): ◯
- In Vitro Permeation ([2]; TPU (HP-93A-100)): ◯
- Percent erdafitinib free in urine [9]: 84%
- Percent erdafitinib free in urine [10]: 95%
- stability in urine (Stability in rat urine): sufficiently stable
- stability in urine (Stability in human urine): sufficiently stable

Source: patent US20250041574A1 (TARIS Biomedical LLC, priority 2022, published 2025)
